Laboratory results published in PubChem BioAssay AID180 (DTP/NCI, 2004).
Where “and” joins values, the source holds several entries; their conditions need not be identical. Equal entries are not always repeated.

Test system: BDF1 mice, Adenocarcinoma 755 s.c., tumor weight T/C
Test: NCI In Vivo Anticancer Drug Screen. Data for tumor model Adenocarcinoma 755 (subcutaneous) in B6D2F1 (BDF1) mice
Conditions: endpoint: mean tumor weight, higher = larger tumour
Procedure: The antitumor activity of compounds was measured in mice bearing transplantable tumors. Survival or tumor size were measured and the results are expressed as the measurement made in the treated group (T) divided by the measurement made in the vehicle treated control group (C). The tumor model used in this assay is Adenocarcinoma 755 (subcutaneous) in B6D2F1 (BDF1) mice

[1] = dose: 5.0 mg/kg/injection, schedule: Q01DX011 (ip), vehicle: carboxymethylcellulose (CMC)
[2] = dose: 10.0 mg/kg/injection, schedule: Q01DX011 (ip), vehicle: carboxymethylcellulose (CMC)

**Q.** How did the T/C (dose: 1.87 mg/kg/injection, schedule: Q01DX006 (iv), vehicle: carboxymethylcellulose (CMC)) turn out when `Clc1ncnc2nc[nH]c12` was run?
**A.** 96 % of control

**Q.** What about the T/C (dose: 1.87 mg/kg/injection, schedule: Q01DX011 (im), vehicle: carboxymethylcellulose (CMC)) of the same molecule?
**A.** 47 % of control

**Q.** What about the T/C (dose: 1.87 mg/kg/injection, schedule: Q01DX011 (ip), vehicle: carboxymethylcellulose (CMC)) of the same molecule?
**A.** 83 % of control

**Q.** And the T/C (dose: 1.87 mg/kg/injection, schedule: Q01DX011 (sc), vehicle: carboxymethylcellulose (CMC))?
**A.** 103 % of control

**Q.** What about the T/C (dose: 2.5 mg/kg/injection, schedule: Q01DX011 (ip), vehicle: carboxymethylcellulose (CMC)) of the same molecule?
**A.** 66 % of control

**Q.** What about the T/C (dose: 3.12 mg/kg/injection, schedule: Q01DX011 (oral), vehicle: carboxymethylcellulose (CMC)) of the same molecule?
**A.** 110 % of control

**Q.** And the T/C (dose: 3.12 mg/kg/injection, schedule: Q#A X022 (ip), vehicle: carboxymethylcellulose (CMC))?
**A.** 48 % of control

**Q.** And the T/C (dose: 3.75 mg/kg/injection, schedule: Q01DX006 (iv), vehicle: carboxymethylcellulose (CMC))?
**A.** 94 % of control

**Q.** And the T/C (dose: 3.75 mg/kg/injection, schedule: Q01DX011 (im), vehicle: carboxymethylcellulose (CMC))?
**A.** 83 % of control

**Q.** And the T/C (dose: 3.75 mg/kg/injection, schedule: Q01DX011 (ip), vehicle: carboxymethylcellulose (CMC))?
**A.** 62 % of control

**Q.** What about the T/C (dose: 3.75 mg/kg/injection, schedule: Q01DX011 (sc), vehicle: carboxymethylcellulose (CMC)) of the same molecule?
**A.** 76 % of control

**Q.** And the T/C [1]?
**A.** 36 % of control and 58 % of control

**Q.** And the T/C (dose: 5.0 mg/kg/injection, schedule: Q03DX004 (ip), vehicle: carboxymethylcellulose (CMC))?
**A.** 81 % of control

**Q.** What about the T/C (dose: 6.25 mg/kg/injection, schedule: Q01DX011 (oral), vehicle: carboxymethylcellulose (CMC)) of the same molecule?
**A.** 55 % of control

**Q.** What about the T/C (dose: 6.25 mg/kg/injection, schedule: Q#A X022 (ip), vehicle: carboxymethylcellulose (CMC)) of the same molecule?
**A.** 41 % of control

**Q.** What about the T/C (dose: 7.5 mg/kg/injection, schedule: Q01DX006 (iv), vehicle: carboxymethylcellulose (CMC)) of the same molecule?
**A.** 82 % of control

**Q.** What about the T/C (dose: 7.5 mg/kg/injection, schedule: Q01DX011 (im), vehicle: carboxymethylcellulose (CMC)) of the same molecule?
**A.** 22 % of control

**Q.** And the T/C (dose: 7.5 mg/kg/injection, schedule: Q01DX011 (ip), vehicle: carboxymethylcellulose (CMC))?
**A.** 34 % of control

**Q.** And the T/C (dose: 7.5 mg/kg/injection, schedule: Q01DX011 (sc), vehicle: carboxymethylcellulose (CMC))?
**A.** 28 % of control

**Q.** And the T/C [2]?
**A.** 27 % of control

**Q.** What about the T/C (dose: 10.0 mg/kg/injection, schedule: Q01DX011 (ip), vehicle: methylcellulose (MC)) of the same molecule?
**A.** 44 % of control

**Q.** What about the T/C (dose: 10.0 mg/kg/injection, schedule: Q03DX004 (ip), vehicle: carboxymethylcellulose (CMC)) of the same molecule?
**A.** 66 % of control

**Q.** What about the T/C (dose: 12.5 mg/kg/injection, schedule: Q01DX011 (oral), vehicle: carboxymethylcellulose (CMC)) of the same molecule?
**A.** 11 % of control

**Q.** And the T/C (dose: 12.5 mg/kg/injection, schedule: Q#A X022 (ip), vehicle: carboxymethylcellulose (CMC))?
**A.** 8 % of control

**Q.** And the T/C (dose: 15.0 mg/kg/injection, schedule: Q01DX006 (iv), vehicle: carboxymethylcellulose (CMC))?
**A.** 25 % of control

**Q.** And the T/C (dose: 15.0 mg/kg/injection, schedule: Q01DX011 (ip), vehicle: carboxymethylcellulose (CMC))?
**A.** 13 % of control

**Q.** And the T/C (dose: 15.0 mg/kg/injection, schedule: Q01DX011 (sc), vehicle: carboxymethylcellulose (CMC))?
**A.** 7 % of control

**Q.** And the T/C (dose: 15.0 mg/kg/injection, schedule: Q03DX004 (ip), vehicle: carboxymethylcellulose (CMC))?
**A.** 55 % of control

**Q.** And the T/C (dose: 18.75 mg/kg/injection, schedule: Q07DX002 (ip), vehicle: carboxymethylcellulose (CMC))?
**A.** 46 % of control

**Q.** What about the T/C (dose: 25.0 mg/kg/injection, schedule: Q01DX011 (oral), vehicle: carboxymethylcellulose (CMC)) of the same molecule?
**A.** 2 % of control

**Q.** And the T/C (dose: 25.0 mg/kg/injection, schedule: Q03DX004 (ip), vehicle: carboxymethylcellulose (CMC))?
**A.** 35 % of control

**Q.** What about the T/C (dose: 37.5 mg/kg/injection, schedule: Q01DX001 (ip), vehicle: carboxymethylcellulose (CMC)) of the same molecule?
**A.** 49 % of control and 66 % of control

**Q.** What about the T/C (dose: 37.5 mg/kg/injection, schedule: Q07DX002 (ip), vehicle: carboxymethylcellulose (CMC)) of the same molecule?
**A.** 16 % of control

**Q.** What about the T/C (dose: 50.0 mg/kg/injection, schedule: Q01DX011 (ip), vehicle: carboxymethylcellulose (CMC)) of the same molecule?
**A.** 3 % of control

**Q.** And the T/C (dose: 50.0 mg/kg/injection, schedule: Q01DX011 (ip), vehicle: methylcellulose (MC))?
**A.** 5 % of control

**Q.** What about the T/C (dose: 50.0 mg/kg/injection, schedule: Q01DX011 (sc), vehicle: carboxymethylcellulose (CMC)) of the same molecule?
**A.** 1 % of control

**Q.** What about the T/C (dose: 50.0 mg/kg/injection, schedule: Q03DX004 (ip), vehicle: carboxymethylcellulose (CMC)) of the same molecule?
**A.** 5 % of control

**Q.** And the T/C (dose: 75.0 mg/kg/injection, schedule: Q01DX001 (ip), vehicle: carboxymethylcellulose (CMC))?
**A.** 18 % of control and 42 % of control

**Q.** What about the T/C (dose: 75.0 mg/kg/injection, schedule: Q03DX004 (ip), vehicle: carboxymethylcellulose (CMC)) of the same molecule?
**A.** 1 % of control

**Q.** And the T/C (dose: 75.0 mg/kg/injection, schedule: Q07DX002 (ip), vehicle: carboxymethylcellulose (CMC))?
**A.** 1 % of control

**Q.** What about the T/C (dose: 100.0 mg/kg/injection, schedule: Q01DX011 (ip), vehicle: carboxymethylcellulose (CMC)) of the same molecule?
**A.** 1 % of control and 4 % of control

**Q.** And the T/C (dose: 100.0 mg/kg/injection, schedule: Q01DX011 (ip), vehicle: methylcellulose (MC))?
**A.** 6 % of control

**Q.** And the T/C (dose: 150.0 mg/kg/injection, schedule: Q01DX001 (ip), vehicle: carboxymethylcellulose (CMC))?
**A.** 24 % of control and 29 % of control

**Q.** And the T/C (dose: 150.0 mg/kg/injection, schedule: Q07DX002 (ip), vehicle: carboxymethylcellulose (CMC))?
**A.** 1 % of control

**Q.** What about the T/C (dose: 175.0 mg/kg/injection, schedule: Q01DX001 (ip), vehicle: carboxymethylcellulose (CMC)) of the same molecule?
**A.** 8 % of control and 17 % of control

**Q.** And the T/C (dose: 175.0 mg/kg/injection, schedule: Q07DX002 (ip), vehicle: carboxymethylcellulose (CMC))?
**A.** 4 % of control

**Q.** And the T/C (dose: 300.0 mg/kg/injection, schedule: Q01DX011 (ip), vehicle: methylcellulose (MC))?
**A.** 4 % of control

**Q.** What about the T/C (dose: 350.0 mg/kg/injection, schedule: Q01DX001 (ip), vehicle: carboxymethylcellulose (CMC)) of the same molecule?
**A.** 5 % of control and 8 % of control

**Q.** With `COCC1OC2OC3C(COC)OC(OC4C(COC)OC(OC5C(COC)OC(OC6C(COC)OC(OC7C(COC)OC(OC8C(COC)OC(OC1C(O)C2O)C(O)C8O)C(O)C7O)C(O)C6O)C(O)C5O)C(O)C4O)C(O)C3O` (stereo not given) (tested in a mixture with another compound) as the molecule, how does the T/C (dose: 3.12 mg/kg/injection, schedule: Q01DX011 (ip), vehicle: Klucel (hydroxypropylcellulose) (HPC)) read?
**A.** 87 % of control

**Q.** And the T/C (dose: 6.25 mg/kg/injection, schedule: Q01DX011 (ip), vehicle: Klucel (hydroxypropylcellulose) (HPC))?
**A.** 97 % of control

**Q.** What about the T/C (dose: 12.5 mg/kg/injection, schedule: Q01DX011 (ip), vehicle: Klucel (hydroxypropylcellulose) (HPC)) of the same molecule?
**A.** 66 % of control

**Q.** And the T/C (dose: 25.0 mg/kg/injection, schedule: Q01DX011 (ip), vehicle: Klucel (hydroxypropylcellulose) (HPC))?
**A.** 95 % of control

**Q.** And the T/C (dose: 50.0 mg/kg/injection, schedule: Q01DX011 (ip), vehicle: Klucel (hydroxypropylcellulose) (HPC))?
**A.** 87 % of control

**Q.** And the T/C (dose: 100.0 mg/kg/injection, schedule: Q01DX011 (ip), vehicle: Klucel (hydroxypropylcellulose) (HPC))?
**A.** 51 % of control

**Q.** What about the T/C (dose: 200.0 mg/kg/injection, schedule: Q01DX011 (ip), vehicle: Klucel (hydroxypropylcellulose) (HPC)) of the same molecule?
**A.** 104 % of control

**Q.** What about the T/C (dose: 400.0 mg/kg/injection, schedule: Q01DX011 (ip), vehicle: Klucel (hydroxypropylcellulose) (HPC)) of the same molecule?
**A.** 71 % of control

**Q.** How did the T/C (dose: 6.3 mg/kg/injection, schedule: Q01DX011 (ip), vehicle: saline) turn out when `CC1CN1P(=O)(N1CCCC1)N1CC1C` (stereo not given) was run?
**A.** 73 % of control

**Q.** And the T/C (dose: 12.5 mg/kg/injection, schedule: Q01DX011 (ip), vehicle: saline)?
**A.** 58 % of control

**Q.** What about the T/C (dose: 25.0 mg/kg/injection, schedule: Q01DX011 (ip), vehicle: saline) of the same molecule?
**A.** 19 % of control and 20 % of control

**Q.** What about the T/C (dose: 50.0 mg/kg/injection, schedule: Q01DX011 (ip), vehicle: saline) of the same molecule?
**A.** 2 % of control and 3 % of control

**Q.** With `Nc1nc(SC2=NCCN2)c2[nH]cnc2n1` as the molecule, how does the T/C (dose: 0.75 mg/kg/injection, schedule: Q01DX011 (ip), vehicle: carboxymethylcellulose (CMC)) read?
**A.** 22 % of control

**Q.** And the T/C (dose: 1.5 mg/kg/injection, schedule: Q01DX011 (ip), vehicle: carboxymethylcellulose (CMC))?
**A.** 6 % of control

**Q.** What about the T/C (dose: 3.0 mg/kg/injection, schedule: Q01DX011 (ip), vehicle: carboxymethylcellulose (CMC)) of the same molecule?
**A.** 6 % of control

**Q.** And the T/C (dose: 90.0 micrograms/kg/injection, schedule: Q01DX011 (ip), vehicle: carboxymethylcellulose (CMC))?
**A.** 57 % of control

**Q.** What about the T/C (dose: 187.0 micrograms/kg/injection, schedule: Q01DX011 (ip), vehicle: carboxymethylcellulose (CMC)) of the same molecule?
**A.** 88 % of control

**Q.** What about the T/C (dose: 370.0 micrograms/kg/injection, schedule: Q01DX011 (ip), vehicle: carboxymethylcellulose (CMC)) of the same molecule?
**A.** 79 % of control

**Q.** And the T/C (dose: 750.0 micrograms/kg/injection, schedule: Q01DX011 (ip), vehicle: carboxymethylcellulose (CMC))?
**A.** 33 % of control

**Q.** With `Cn1ncc2c(NCc3ccccc3)ncnc21` as the molecule, how does the T/C [1] read?
**A.** 62 % of control and 66 % of control and 71 % of control

**Q.** What about the T/C [2] of the same molecule?
**A.** 43 % of control and 58 % of control and 60 % of control

**Q.** And the T/C (dose: 20.0 mg/kg/injection, schedule: Q01DX011 (ip), vehicle: carboxymethylcellulose (CMC))?
**A.** 5 % of control and 24 % of control and 29 % of control
